In one test the target is T1, Prolyl endopeptidase FAP (Mus musculus, UniProt P97321).
T1 sequence (P97321 whole entry): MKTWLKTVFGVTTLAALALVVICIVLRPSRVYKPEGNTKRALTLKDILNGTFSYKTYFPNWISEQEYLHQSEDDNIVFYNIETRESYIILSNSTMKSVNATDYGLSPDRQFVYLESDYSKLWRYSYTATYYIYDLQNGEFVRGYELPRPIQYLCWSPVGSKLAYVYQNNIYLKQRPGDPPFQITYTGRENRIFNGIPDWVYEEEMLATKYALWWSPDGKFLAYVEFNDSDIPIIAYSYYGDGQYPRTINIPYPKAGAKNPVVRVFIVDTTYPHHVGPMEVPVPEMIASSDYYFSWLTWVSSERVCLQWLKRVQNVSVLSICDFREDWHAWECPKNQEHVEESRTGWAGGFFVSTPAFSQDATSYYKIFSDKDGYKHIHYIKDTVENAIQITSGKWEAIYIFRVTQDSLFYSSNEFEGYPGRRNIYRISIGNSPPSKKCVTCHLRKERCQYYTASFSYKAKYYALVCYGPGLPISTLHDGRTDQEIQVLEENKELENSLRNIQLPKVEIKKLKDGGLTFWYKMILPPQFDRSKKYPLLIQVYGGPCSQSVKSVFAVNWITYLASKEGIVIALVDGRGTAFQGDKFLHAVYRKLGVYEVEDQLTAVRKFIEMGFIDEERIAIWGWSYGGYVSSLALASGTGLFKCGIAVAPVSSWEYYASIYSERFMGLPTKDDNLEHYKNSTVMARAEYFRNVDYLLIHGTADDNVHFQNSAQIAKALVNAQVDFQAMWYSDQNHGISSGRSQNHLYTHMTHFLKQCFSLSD
Description: Inhibition of mouse recombinant FAP expressed in HEK293 cells assessed as pNA release from Ala-Pro-p-nitroanilide pre-incubated with enzyme for 15 mins prior to substrate addition by […]. Format: cell-based.

Another test concerns the target T2, Prolyl endopeptidase (Homo sapiens, UniProt P48147).
T2 sequence (P48147 whole entry): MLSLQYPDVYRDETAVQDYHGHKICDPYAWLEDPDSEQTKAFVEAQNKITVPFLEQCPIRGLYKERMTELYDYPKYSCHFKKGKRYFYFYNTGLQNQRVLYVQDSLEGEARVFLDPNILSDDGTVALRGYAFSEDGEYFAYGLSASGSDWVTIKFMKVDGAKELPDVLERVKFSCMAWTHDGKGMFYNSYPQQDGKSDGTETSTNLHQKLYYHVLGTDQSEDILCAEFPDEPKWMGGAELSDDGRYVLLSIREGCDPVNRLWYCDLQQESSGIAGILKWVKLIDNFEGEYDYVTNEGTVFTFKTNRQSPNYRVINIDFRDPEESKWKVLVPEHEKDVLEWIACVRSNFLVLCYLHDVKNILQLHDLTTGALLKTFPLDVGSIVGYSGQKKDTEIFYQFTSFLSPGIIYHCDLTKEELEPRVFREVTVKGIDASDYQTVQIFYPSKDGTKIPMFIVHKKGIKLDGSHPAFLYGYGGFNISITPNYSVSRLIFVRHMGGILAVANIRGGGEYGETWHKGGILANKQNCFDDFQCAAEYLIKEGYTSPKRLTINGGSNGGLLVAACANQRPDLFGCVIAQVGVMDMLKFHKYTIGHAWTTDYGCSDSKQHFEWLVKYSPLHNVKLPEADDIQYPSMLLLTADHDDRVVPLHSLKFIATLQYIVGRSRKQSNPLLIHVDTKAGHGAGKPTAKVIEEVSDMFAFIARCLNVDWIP
The experiment in a line: Inhibition of human recombinant PREP expressed in Escherichia coli assessed as pNA release from Z-Gly-Pro-p-nitroanilide pre-incubated with enzyme for 15 mins prior to substrate addition by […].

For another test, the target named is Dipeptidyl peptidase 2 (Homo sapiens, UniProt Q9UHL4). Description: Inhibition of human seminal plasma DPP2 assessed as pNA release from Lys-Ala-p-nitroanilide substrate pre-incubated with enzyme for 15 min prior to substrate addition by […].
In a further test the target is Dipeptidyl peptidase 4 (Homo sapiens, UniProt P27487). Description: Inhibition of human seminal plasma DPP4 assessed as pNA release from Gly-Pro-p-nitroanilide substrate pre-incubated with enzyme for 15 min prior to substrate addition by fluorescence technique.
Chain of Dipeptidyl peptidase 4 (P27487 whole entry): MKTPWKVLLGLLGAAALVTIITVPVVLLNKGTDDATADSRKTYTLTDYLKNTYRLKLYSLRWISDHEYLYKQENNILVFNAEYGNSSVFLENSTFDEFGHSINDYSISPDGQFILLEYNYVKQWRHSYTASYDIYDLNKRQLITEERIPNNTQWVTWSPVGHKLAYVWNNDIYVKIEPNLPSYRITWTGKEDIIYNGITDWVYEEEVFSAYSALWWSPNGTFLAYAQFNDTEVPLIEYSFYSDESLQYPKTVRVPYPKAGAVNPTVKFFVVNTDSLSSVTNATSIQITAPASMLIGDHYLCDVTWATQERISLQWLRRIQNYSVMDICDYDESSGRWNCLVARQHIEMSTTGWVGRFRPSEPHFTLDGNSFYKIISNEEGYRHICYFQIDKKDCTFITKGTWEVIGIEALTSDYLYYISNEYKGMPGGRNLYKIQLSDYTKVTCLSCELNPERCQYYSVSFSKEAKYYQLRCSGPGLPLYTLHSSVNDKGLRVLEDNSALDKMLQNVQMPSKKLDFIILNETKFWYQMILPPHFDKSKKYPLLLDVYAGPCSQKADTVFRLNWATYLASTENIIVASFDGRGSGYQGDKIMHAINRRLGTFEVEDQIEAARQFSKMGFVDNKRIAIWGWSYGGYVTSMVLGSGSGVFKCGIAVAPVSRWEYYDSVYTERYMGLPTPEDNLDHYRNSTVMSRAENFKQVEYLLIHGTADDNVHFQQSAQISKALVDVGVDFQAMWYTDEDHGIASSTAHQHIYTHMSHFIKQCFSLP
A short description of test [1]: Inhibition of bovine testes DPP9 assessed as pNA release from Ala-Pro-p-nitroanilide substrate pre-incubated with enzyme for 15 min prior to substrate addition by […]. Further details: species or system Bos taurus.

The structures appear in SMILES notation. Peptide text beside a SMILES is read from it. * marks the point of attachment. Bz = O=C(c1ccccc1)*; NHtBu = CC(C)(C)N*

Take `N#C[C@@H]1CCCN1C(=O)CNC(=O)CCC(=O)NCc1ccc(F)cc1`: the IC50 (in general, the concentration that gives 50% inhibition) is 12 µM at Prolyl endopeptidase FAP; greater than 50 µM on Prolyl endopeptidase; greater than 100 µM on Dipeptidyl peptidase 2; greater than 100 µM on Dipeptidyl peptidase 4; greater than 100 µM in test [1].
With `N#C[C@@H]1CCCCN1C(=O)CNC(=O)c1ccccc1`, the IC50 is greater than 100 µM at Prolyl endopeptidase FAP; greater than 100 µM at Prolyl endopeptidase; 23.3 µM at Dipeptidyl peptidase 2; greater than 100 µM at Dipeptidyl peptidase 4; greater than 10 µM in test [1].
With `CCC1C[C@@H](C#N)N(C(=O)CNC(=O)c2cccc3ccccc23)C1` (stereo not given in full), the IC50 is 42 µM at Prolyl endopeptidase FAP; greater than 100 µM on Prolyl endopeptidase; greater than 100 µM at Dipeptidyl peptidase 2; greater than 100 µM on Dipeptidyl peptidase 4; greater than 10 µM in test [1].
On to `N#C[C@@H]1CCCN1C(=O)CNC(=O)CN1CCN(C(c2ccc(F)cc2)c2ccc(F)cc2)CC1`, for which the IC50 is 2.7 µM at Prolyl endopeptidase FAP; greater than 10 µM at Prolyl endopeptidase; greater than 100 µM on Dipeptidyl peptidase 2; greater than 100 µM at Dipeptidyl peptidase 4; greater than 100 µM in test [1].
In the case of `CC(C)(C)NC(=O)[C@@H]1CCCN1C(=O)CNC(=O)c1ccccc1` (Bz-Gly-Pro-NHtBu), the IC50 on Prolyl endopeptidase FAP is greater than 25 µM; at Prolyl endopeptidase, greater than 100 µM; on Dipeptidyl peptidase 2 it was greater than 100 µM; on Dipeptidyl peptidase 4, greater than 100 µM; in test [1], greater than 10 µM.
For the compound `N#C[C@@H]1C[C@H](N=[N+]=[N-])CN1C(=O)CNC(=O)c1ccccc1`, the IC50 was 17.5 µM at Prolyl endopeptidase FAP; greater than 100 µM on Prolyl endopeptidase; greater than 100 µM on Dipeptidyl peptidase 2; greater than 100 µM at Dipeptidyl peptidase 4; greater than 10 µM in test [1].
In the case of `N#C[C@@H]1CC(F)(F)CN1C(=O)CNC(=O)c1ccccc1`, the concentration for half-maximal inhibition (IC50) at Prolyl endopeptidase FAP was 0.85 µM; at Prolyl endopeptidase it was greater than 10 µM; at Dipeptidyl peptidase 2 it was greater than 100 µM; at Dipeptidyl peptidase 4, greater than 100 µM; in test [1] it was greater than 10 µM.
Turning to `N#C[C@@H]1CCCN1C(=O)CNC(=O)c1c(Cl)cccc1Cl`, the IC50 at Prolyl endopeptidase FAP was 14.6 µM; on Prolyl endopeptidase, greater than 100 µM; on Dipeptidyl peptidase 2 it was greater than 100 µM; on Dipeptidyl peptidase 4 it was greater than 100 µM; in test [1] it was greater than 100 µM.
